Test results published in PubChem BioAssay AID2060620 (Molecular Pharmacology Branch, DTP, NCI, 2025).
pIC50: −log10 of the molar value.

Test system: 328373-195-R-J1-PDC complex spheroids, viability % test/control
Test: Anticancer human tumor 328373-195-R-J1-PDC patient-derived head and neck squamous carcinoma cell line growth inhibition [CLK]
Details: for pIC50: curve of first compound; for viability, T/C: stronger effect = lower value
Source text: A high-throughput screen of multi-cell type tumor spheroids was designed to identify active combinations of […] and targeted small molecules. Complex spheroids include a stromal component modeled by human endothelial cells (HUVEC) and fibroblasts modeled by human mesenchymal stem cells (MSCs). The concentration ranges selected for each drug and investigational agent were based upon clinically achievable concentrations if the clinical Cmax of the agent was known.
Compounds. The drugs and investigational agents: cirtuvivint (SM08502; NSC835563), CC-671 (NSC850746), vemurafenib (NSC761431), tapotoclax (NSC804041), sotorasib (NSC818433), adagrasib (NSC831453), MRTX-1133 (NSC836407), BAY2416964 (NSC825713), copanlisib (NSC816437), inavolisib (NSC800729), abemaciclib (NSC768073), osimertinib (NSC779217), entinostat (NSC756642), eltanexor (KPT-8602, NSC794443), venetoclax (NSC766270), ceralasertib (NSC777638), bortezomib (NSC756655), olaparib (NSC753686), talazoparib (NSC767125), alisertib (NSC759677), peposertib (NSC802822), gemcitabine (NSC613327), 5-fluorouracil (NSC19893), SN-38 (NSC673596), oxaliplatin (NSC266046), paclitaxel (NSC125973), and doxorubicin (NSC123127), were obtained from the National Cancer Institute (NCI) Developmental Therapeutics Program Chemical Repository. The FDA-approved anticancer drug set is available from the Developmental Therapeutics Program at https://dtp.cancer.gov/organization/dscb/obtaining/available plates.htm. […] The stock solutions were prepared in dimethyl sulfoxide (DMSO, Sigma-Aldrich, St. Louis, MO, cat. D2650), except for the platinum complexes which were prepared in saline (Quality Biological, Gaithersburg, MD, cat. 114-055-101), at 800-fold the tested concentration and stored at -70 degrees C prior to their use. All drugs and investigational agents were tested over a range starting from a high concentration at or near the clinical Cmax and decreasing in half-log increments. If the clinical Cmax for an agent had not been determined, the highest concentration tested was 10 microM.
Cell Culture. All cells were maintained in an incubator at 37 degrees C and 5% CO2 with 95% humidity. The PDC lines were cultured according to standard operating procedures established by the NCI PDMR. Briefly, all PDCs were thawed and cultured in Matrigel-coated flasks prepared with a working solution of 1X Ham's F-12 nutrient mix, without supplementation (Invitrogen, Waltham, MA, cat. 11765054), 100 U/mL penicillin-streptomycin (Invitrogen, cat. 15140122), and 2.5% Matrigel (Corning Inc., Corning, NY, cat. 354248) for the first three passages. The 947758-054-R-J2-PDC line was cultured in 6B/Colon 1A media, which includes advanced DMEM/F-12 (Thermo Fisher Scientific, cat. 12634028), 10 mM HEPES (Thermo Fisher Scientific, cat. 15630080), 1X GlutaMAX supplement (Thermo Fisher Scientific, cat. 35050061), 0.1 mg/mL primocin (InvivoGen, cat. ant-pm-2), 10% defined fetal bovine serum, heat inactivated (HyClone Laboratories Inc., cat. SH30070.03HI), 1.25 mM N-Acetyl-L-cysteine (Sigma-Aldrich, cat. A9165), 10 mM nicotinamide (Sigma-Aldrich, cat. N0636), 1X B-27 supplement (Thermo Fisher Scientific, cat. 17504044), 1X N-2 supplement (Thermo Fisher Scientific, cat. 17502048), and 10 microM Y-27632 dihydrochloride (Tocris Bioscience, cat. 1254). The 876862-298-R-J1-PDC was cultured in 6E media, which includes all 6B/Colon 1A media components plus 50% L-WRN conditioned media (ATCC, cat. CRL-3276), 50 ng/mL recombinant human EGF recombinant protein (hEGF; Thermo Fisher Scientific, cat. PHG0311), 10 ng/mL recombinant human fibroblast growth factor 10 (hGFG-10; PeproTech, cat. 100-26), 1 ng/mL recombinant human fibroblast growth factor 2 (hFGF-2; PeproTech, cat. 100-18B), and 1 µM prostaglandin E2 (PGE2; Tocris, cat. 2296). The 227483-062-R1-J1-PDC line was cultured in Panc media, containing all 6E components except hFGF-2, with the addition of 500 nM SB-431542 (Selleckchem, cat. S1067) and 10 nM gastrin (Tocris, cat. 3006). […]
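Also: spheroids exposed to the agents for 7 days.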

With C#Cc1c(F)ccc2cc(O)cc(-c3ncc4c(N5CC6CCC(C5)N6)nc(OCC56CCCN5CC(F)C6)nc4c3F)c12 (configuration not stated) + CN1CCN(c2cc(C(=O)Nc3cc4cc(-c5cnn(C)c5)ccc4cn3)ccn2)CC1 the pIC50 (second compound 0.0316 µM) was < 5.00, the pIC50 (second compound 0.1 µM) was < 5.00 and the pIC50 (second compound 0.316 µM) was > 7.50. For the same compound, the pIC50 (second compound 1 µM) was > 7.50, the pIC50 (second compound 3.16 µM) was > 7.50 and the pIC50 (second compound 10 µM) was > 7.50. The viability, T/C (second compound 0.0316 µM, first compound 0.0316 µM) was 92.8%, the viability, T/C (second compound 0.0316 µM, first compound 0.1 µM) was 88% and the viability, T/C (second compound 0.0316 µM, first compound 0.316 µM) was 109%. The viability, T/C (second compound 0.0316 µM, first compound 1 µM) was 93.9%, the viability, T/C (second compound 0.0316 µM, first compound 3.16 µM) was 103% and the viability, T/C (second compound 0.0316 µM, first compound 10 µM) was 81.5%. The viability, T/C (second compound 0.1 µM, first compound 0.0316 µM) was 80.8%, the viability, T/C (second compound 0.1 µM, first compound 0.1 µM) was 85.2% and the viability, T/C (second compound 0.1 µM, first compound 0.316 µM) was 80.1%. The viability, T/C (second compound 0.1 µM, first compound 1 µM) was 83.2%, the viability, T/C (second compound 0.1 µM, first compound 3.16 µM) was 88.8% and the viability, T/C (second compound 0.1 µM, first compound 10 µM) was 62.4%. The viability, T/C (second compound 0.316 µM, first compound 0.0316 µM) was 34%, the viability, T/C (second compound 0.316 µM, first compound 0.1 µM) was 34.8% and the viability, T/C (second compound 0.316 µM, first compound 0.316 µM) was 30.9%. The viability, T/C (second compound 0.316 µM, first compound 1 µM) was 39.2%, the viability, T/C (second compound 0.316 µM, first compound 3.16 µM) was 32.8% and the viability, T/C (second compound 0.316 µM, first compound 10 µM) was 16.9%. For the same compound, the viability, T/C (second compound 1 µM, first compound 0.0316 µM) was 0.24%, the viability, T/C (second compound 1 µM, first compound 0.1 µM) was 0.32% and the viability, T/C (second compound 1 µM, first compound 0.316 µM) was 1.75%. For the same compound, the viability, T/C (second compound 1 µM, first compound 1 µM) was 0.29%, the viability, T/C (second compound 1 µM, first compound 3.16 µM) was 0.2% and the viability, T/C (second compound 1 µM, first compound 10 µM) was 2.89%. The viability, T/C (second compound 3.16 µM, first compound 0.0316 µM) was 0.63%, the viability, T/C (second compound 3.16 µM, first compound 0.1 µM) was 2.27% and the viability, T/C (second compound 3.16 µM, first compound 0.316 µM) was 3.6%. For the same compound, the viability, T/C (second compound 3.16 µM, first compound 1 µM) was 0.18%, the viability, T/C (second compound 3.16 µM, first compound 3.16 µM) was 0.13% and the viability, T/C (second compound 3.16 µM, first compound 10 µM) was 0.34%. It also gave a viability, T/C (second compound 10 µM, first compound 0.0316 µM) of 1.89%, a viability, T/C (second compound 10 µM, first compound 0.1 µM) of 0.19% and a viability, T/C (second compound 10 µM, first compound 0.316 µM) of 0.24%. The viability, T/C (second compound 10 µM, first compound 1 µM) was 0.19%, the viability, T/C (second compound 10 µM, first compound 3.16 µM) was 0.19% and the viability, T/C (second compound 10 µM, first compound 10 µM) was 1.27%.
